Results published in ChEMBL document CHEMBL3044718, “Effect of phenolic compounds on growth and ligninolytic enzyme production in Botryosphaeria isolates” (2013).
Converted amounts (≈) assume the structure as drawn. The source made the active and inactive calls. No cut-off for these calls is given here.

How the values were obtained:
[1] = system: Diplodia seriata; test: Decrease in Diplodia seriata (Schwein.) Shoemaker mycelium biomass production measured at 28 degC after 4 days by gravimetric analysis; format: functional
[2] = system: Neofusicoccum ribis; test: Decrease in Neofusicoccum ribis mycelium biomass production at 25 mM measured at 28 degC after 4 days by gravimetric analysis; format: functional; conditions: 96 h
[3] = system: Botryosphaeria dothidea; test: Inhibition of Botryosphaeria dothidea mycelium growth at 25 mM measured at 28 degC after 4 days; format: functional; conditions: 96 h, read-out: GI
[4] = system: Diplodia seriata; test: Inhibition of Diplodia seriata (Schwein.) Shoemaker mycelium growth at 25 mM measured at 28 degC after 4 days; format: functional; conditions: 96 h, read-out: GI
[5] = system: Neofusicoccum ribis; test: Inhibition of Neofusicoccum ribis mycelium growth at 25 mM measured at 28 degC after 4 days; format: functional; conditions: 96 h, read-out: GI
[6] = system: Lasiodiplodia theobromae; test: Inhibition of Lasiodiplodia theobromae mycelium growth at 25 mM measured at 28 degC after 4 days; format: functional; conditions: 96 h, read-out: GI
[7] = system: Lasiodiplodia theobromae; test: Inhibition of Lasiodiplodia theobromae mycelium growth measured at 28 degC after 4 days; format: functional
[8] = system: Neofusicoccum ribis; test: Inhibition of Neofusicoccum ribis mycelium growth measured at 28 degC after 4 days; format: functional
[9] = system: Diplodia seriata; test: Inhibition of Diplodia seriata (Schwein.) Shoemaker mycelium growth measured at 28 degC after 4 days; format: functional
[10] = system: Botryosphaeria dothidea; test: Inhibition of Botryosphaeria dothidea mycelium growth measured at 28 degC after 4 days; format: functional
[11] = system: Botryosphaeria dothidea; test: Decrease in Botryosphaeria dothidea ligninolytic enzyme production assessed as pectinase activity using pectin as substrate at 1 mM measured at 28 degC after 4 days; format: functional, organism-based
[12] = system: Neofusicoccum ribis; test: Decrease in Neofusicoccum ribis ligninolytic enzyme production assessed as pectinase activity using pectin as substrate measured at 28 degC after 4 days; format: functional, organism-based
[13] = system: Lasiodiplodia theobromae; test: Decrease in Lasiodiplodia theobromae ligninolytic enzyme production assessed as pectinase activity using pectin as substrate at 25 mM measured at 28 degC after 4 days; format: functional; conditions: 96 h
[14] = system: Botryosphaeria dothidea; test: Decrease in Botryosphaeria dothidea ligninolytic enzyme production assessed as laccase activity using ABTS as substrate at 5 mM measured at 28 degC after 4 days; format: functional
[15] = system: Botryosphaeria dothidea; test: Decrease in Botryosphaeria dothidea ligninolytic enzyme production assessed as laccase activity using ABTS as substrate measured at 28 degC after 4 days; format: functional, organism-based
[16] = system: Lasiodiplodia theobromae; test: Decrease in Lasiodiplodia theobromae ligninolytic enzyme production assessed as laccase activity using ABTS as substrate at 1 mM measured at 28 degC after 4 days; format: functional; conditions: 96 h
[17] = system: Lasiodiplodia theobromae; test: Decrease in Lasiodiplodia theobromae mycelium biomass production measured at 28 degC after 4 days by gravimetric analysis; format: functional
[18] = system: Phellinus tremulae; test: Inhibition of Phellinus tremulae mycelium growth; format: functional
[19] = system: Diplodia seriata; test: Decrease in Diplodia seriata (Schwein.) Shoemaker ligninolytic enzyme production assessed as pectinase activity using pectin as substrate at 1 mM measured at 28 degC after 4 days; format: functional, organism-based
[20] = system: Diplodia seriata; test: Inhibition of Diplodia seriata (Schwein.) Shoemaker mycelium growth at 10 mM measured at 28 degC after 4 days; format: functional, organism-based
[21] = system: Botryosphaeria dothidea; test: Inhibition of Botryosphaeria dothidea mycelium growth at 10 mM measured at 28 degC after 4 days; format: functional, organism-based
[22] = system: Neofusicoccum ribis; test: Inhibition of Neofusicoccum ribis mycelium growth at 20 mM measured at 28 degC after 4 days; format: functional, organism-based
[23] = system: Lasiodiplodia theobromae; test: Inhibition of Lasiodiplodia theobromae mycelium growth at 20 mM measured at 28 degC after 4 days; format: functional; conditions: 96 h, read-out: GI
[24] = system: Botryosphaeria dothidea; test: Decrease in Botryosphaeria dothidea ligninolytic enzyme production assessed as laccase activity using ABTS as substrate at 25 mM measured at 28 degC after 4 days; format: functional; conditions: 96 h
[25] = system: Botryosphaeria dothidea; test: Inhibition of Botryosphaeria dothidea mycelium growth at 20 mM measured at 28 degC after 4 days; format: functional, organism-based
[26] = system: Diplodia seriata; test: Inhibition of Diplodia seriata (Schwein.) Shoemaker mycelium growth at 15 mM measured at 28 degC after 4 days; format: functional, organism-based
[27] = system: Neofusicoccum ribis; test: Decrease in Neofusicoccum ribis ligninolytic enzyme production assessed as laccase activity using ABTS as substrate at 1 mM measured at 28 degC after 4 days; format: functional; conditions: 96 h
[28] = system: Diplodia seriata; test: Decrease in Diplodia seriata (Schwein.) Shoemaker ligninolytic enzyme production assessed as laccase activity using ABTS as substrate at 1 mM measured at 28 degC after 4 days; format: functional; conditions: 96 h
[29] = system: Botryosphaeria dothidea; test: Decrease in Botryosphaeria dothidea ligninolytic enzyme production assessed as laccase activity using ABTS as substrate at 1 mM measured at 28 degC after 4 days; format: functional
[30] = system: Diplodia seriata; test: Decrease in Diplodia seriata (Schwein.) Shoemaker ligninolytic enzyme production assessed as pectinase activity using pectin as substrate at 15 mM measured at 28 degC after 4 days; format: functional, organism-based
[31] = system: Lasiodiplodia theobromae; test: Inhibition of Lasiodiplodia theobromae mycelium growth at 15 mM measured at 28 degC after 4 days; format: functional; conditions: 96 h, read-out: GI
[32] = system: Botryosphaeria dothidea; test: Decrease in Botryosphaeria dothidea ligninolytic enzyme production assessed as laccase activity using ABTS as substrate at 15 mM measured at 28 degC after 4 days; format: functional, organism-based
[33] = system: Neofusicoccum ribis; test: Inhibition of Neofusicoccum ribis mycelium growth at 15 mM measured at 28 degC after 4 days; format: functional, organism-based

Row | SMILES | inhibition (INH) [1] | inhibition at 25000 µM [2] | inhibition of growth at 25000 µM [5] | inhibition of growth at 25000 µM [6] | MIC ([7]; 96 h) | MIC ([8]; 96 h) | MIC ([9]; 96 h) | MIC ([10]; 96 h) | inhibition [11] | inhibition [12] | inhibition at 25000 µM [13] | inhibition [15] | inhibition at 1000 µM [16] | inhibition (INH) [17] | growth inhibition (GI) [22] | growth inhibition (GI) [26] | further results
1 | COc1cccc(OC)c1C(=O)O [2,6-DIMETHOXYBENZOIC ACID] | 58% | 50% | 86% | 62% | 5 mM (≈ 911 µg/mL) | 5 mM (≈ 911 µg/mL) | 5 mM (≈ 911 µg/mL) | 5 mM (≈ 911 µg/mL) | inactive | inactive | 57% | Active | 58% | 58% | – | – | inhibition of growth at 25000 µM [3]: 95%; inhibition of growth at 25000 µM [4]: 95%; inhibition [14]: inactive
2 | O=C(O)c1ccccc1 [BENZOIC ACID] | – | 50% | – | – | 5 mM (≈ 611 µg/mL) | 5 mM (≈ 611 µg/mL) | 5 mM (≈ 611 µg/mL) | 5 mM (≈ 611 µg/mL) | inactive | inactive | 57% | – | 58% | – | Active | – | MIC [18]: 800 µg/mL (≈ 6.55 mM); inhibition [19]: Active; growth inhibition (GI) [20]: Active; growth inhibition (GI) [21]: Active; inhibition of growth at 20000 µM [23]: 100%; inhibition at 25000 µM [24]: 96%
3 | Oc1ccccc1O [CATECHOL] | 58% | 100% | – | – | 5 mM (≈ 551 µg/mL) | 5 mM (≈ 551 µg/mL) | 5 mM (≈ 551 µg/mL) | 5 mM (≈ 551 µg/mL) | inactive | inactive | 57% | – | 58% | 58% | Active | Active | growth inhibition (GI) [25]: Active; inhibition of growth at 20000 µM [23]: 100%
4 | O=C(O)/C=C/c1ccc(O)cc1 [COUMARIC ACID] | 58% | – | 81% | 100% | 5 mM (≈ 821 µg/mL) | 5 mM (≈ 821 µg/mL) | 5 mM (≈ 821 µg/mL) | 5 mM (≈ 821 µg/mL) | inactive | inactive | 57% | Active | 71% | 58% | – | – | growth inhibition (GI) [20]: Active; growth inhibition (GI) [21]: Active; inhibition at 1000 µM [27]: 71%; inhibition at 1000 µM [28]: 71%; inhibition at 1000 µM ([29]; 96 h): 71%
5 | COc1cc(/C=C/C(=O)O)ccc1O [FERULATE] | 58% | – | 74% | 81% | 5 mM (≈ 971 µg/mL) | 5 mM (≈ 971 µg/mL) | 5 mM (≈ 971 µg/mL) | 5 mM (≈ 971 µg/mL) | inactive | inactive | 57% | Active | 82% | 58% | – | Active | inhibition at 5000 µM ([14]; 96 h): 90%; inhibition at 1000 µM [27]: 82%
6 | COc1ccccc1O [GUAIACOL] | 58% | – | – | – | 5 mM (≈ 621 µg/mL) | 5 mM (≈ 621 µg/mL) | 5 mM (≈ 621 µg/mL) | 5 mM (≈ 621 µg/mL) | – | inactive | 57% | Active | 58% | 58% | Active | Active | inhibition [30]: Active; inhibition of growth at 15000 µM [31]: 100%; inhibition [29]: inactive
7 | O=C(O)c1ccccc1O [SALICYLIC ACID] | 58% | 50% | – | 100% | 5 mM (≈ 691 µg/mL) | 5 mM (≈ 691 µg/mL) | 5 mM (≈ 691 µg/mL) | 5 mM (≈ 691 µg/mL) | inactive | inactive | 57% | Active | 58% | 58% | Active | Active | inhibition [32]: Active
8 | COc1cc(C(=O)O)cc(OC)c1O [SYRINGIC ACID] | – | – | – | – | – | – | – | – | inactive | inactive | 57% | – | 58% | – | – | – | inhibition [19]: Active; inhibition [1]: inactive; MIC [7]: inactive; MIC [8]: inactive; MIC [9]: inactive; MIC [10]: inactive; inhibition [17]: inactive
9 | COc1cccc(OC)c1O [SYRINGOL] | 58% | 50% | – | – | 5 mM (≈ 771 µg/mL) | 5 mM (≈ 771 µg/mL) | 5 mM (≈ 771 µg/mL) | 5 mM (≈ 771 µg/mL) | inactive | inactive | 57% | Active | 58% | 58% | – | Active | growth inhibition (GI) [25]: Active; growth inhibition (GI) [33]: Active; inhibition of growth at 15000 µM [31]: 100%
10 | COc1cc(C(=O)O)ccc1O [VANILLIC ACID] | 58% | 50% | 83% | 52% | 5 mM (≈ 841 µg/mL) | 5 mM (≈ 841 µg/mL) | 5 mM (≈ 841 µg/mL) | 5 mM (≈ 841 µg/mL) | inactive | inactive | 57% | Active | 58% | 58% | – | Active | inhibition of growth at 25000 µM [3]: 93%; inhibition [32]: Active; inhibition [14]: inactive
